Several values for one entry are separate records, joined by “and”; a condition that tells them apart may be missing. Equal entries are not always repeated. Residues, ends and D or L forms follow the SMILES beside them.
Tests used:
[1] = Pharmacokinetics in mice; assay type: in vivo, mouse; details: mouse, in vivo
Protocol: Animals in Group 1 were administered with 5% w/v dextrose in water and Group 2 were administered with corresponding formulation listed in the Supplementary Table 6 through oral routes. Blood samples (approximately 40 μl) were collected under light isoflurane anesthesia from submandibular at predose, 0.08 (IV), 0.25, 0.5, 1, 2, 4, 8, and 24 h using sparse sampling technique. Plasma samples were separated by centrifugation of whole blood and stored below −70 °C until bioanalysis. All samples were processed for analysis by protein precipitation and analyzed with fit-for-purpose LC–MS/MS method.

[2] = target: T1, PD-L1 (Mus musculus, UniProt Q9EP73); assay: Rescue of PD-L1 mediated inhibition of proliferation, mouse splenocytes; assay type: cell-based; details: splenocyte-based assay
T1 construct: purchased R&D Systems 1019-B7-100
Protocol: The ability of peptides, peptidomimetics, and small molecules were analyzed for their ability to rescue T-cell proliferation or IFN-γ release from the inhibitory activity of PD-L1 or PD-L2 in a splenocyte/PBMC-based functional assay as per the protocols reported in publication. […] For all in vitro assays, test agent stock was prepared in water and diluted further in the assay media to achieve test concentrations. Each experimental condition was carried out in triplicates. Percent rescue for a given test compound concentration was calculated by normalizing individual percent test agent proliferation or IFN-γ release values to percent anti-CD3 and anti-CD28 antibodies stimulated proliferation or IFN-γ release. EC50 values were derived by plotting transformed data into non-linear fit in sigmoidal dose–response curve using GraphPad Prism software (Version 7).

[3] = tested on: CT26 colon carcinoma; assay: CT26 model, combination with docetaxel; assay type: in vivo, mouse; details: for TGI: CT26 in Balb/c mice, 12 days; for Individual tumor volumes: individual animals
Protocol: (§1) Studies in syngeneic models including B16 melanoma metastasis model and CT26 colon carcinoma subcutaneous model were performed as described. For the Docetaxel combination experiment in CT26 model, indicated dosage of docetaxel (Source: Docetere® injection by Dr Reddy’s Laboratories) was dosed intraperitoneally to animals. For the CA-170 combination groups, CA-170 (10 mg/kg/day, oral) was dosed ~10 min after docetaxel. Animal grouping, treatment efficacy assessment and %TGI calculations were performed as mentioned above. For the CT26 experiment with cyclophosphamide, 100 mg/kg of cyclophosphamide was dosed once on day 5 intraperitoneally after cell implantation (first day of dosing for all other groups). Anti-PD1 antibody (Clone J43 from BioXcel) was dosed intraperitoneally at 100 µg/animal once every week.

[4] = tested on: CT26 colon carcinoma; assay: CT26 model, survival in combination with cyclophosphamide; assay type: in vivo, mouse; parameters: key to Survival data: 0: Censored; Death or tumor volume more than 10% of body weight; details: Vehicle+CTX, individual animals
Protocol: as §1

T1 sequence (Q9EP73 with tags, fused parts or gaps limits assumed): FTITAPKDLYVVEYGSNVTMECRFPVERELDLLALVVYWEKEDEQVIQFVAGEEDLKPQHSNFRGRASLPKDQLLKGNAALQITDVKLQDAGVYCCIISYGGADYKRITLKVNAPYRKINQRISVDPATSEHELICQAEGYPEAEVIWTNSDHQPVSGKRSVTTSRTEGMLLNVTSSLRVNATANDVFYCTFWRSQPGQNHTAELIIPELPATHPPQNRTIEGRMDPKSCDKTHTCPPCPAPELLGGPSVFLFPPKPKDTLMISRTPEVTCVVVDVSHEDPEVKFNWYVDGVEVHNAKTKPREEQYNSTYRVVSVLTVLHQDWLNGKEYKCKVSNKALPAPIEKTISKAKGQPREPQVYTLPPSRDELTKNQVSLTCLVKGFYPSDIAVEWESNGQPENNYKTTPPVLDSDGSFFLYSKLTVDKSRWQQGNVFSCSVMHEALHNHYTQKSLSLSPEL

C[C@@H](O)[C@@H]1NC(=O)[C@H](CC(N)=O)NC(=O)[C@H](CO)NC(=O)[C@H](Cc2ccccc2)NC(=O)[C@H](CO)NC(=O)[C@H](CCC(=O)O)NC(=O)[C@H](CO)NC1=O [PM-823] (HELM PEPTIDE1{E.S.F.S.N.T.S}$PEPTIDE1,PEPTIDE1,1:R1-7:R2$$$V2.0)
AUC ([1]; iv, 1 mg/kg): 2180 ng·h/mL
clearance ([1]; iv, 1 mg/kg): 22.9 mL/min/kg
bioavailability ([1]; po): 6.8%
oral bioavailability (in words) ([1]; po): not orally bioavailable
AUC ([1]; po, 30 mg/kg): 495 ng·h/mL
Cmax ([1]; po, 30 mg/kg): 554 ng/mL
EC50 [2]: 55 nM

CC(=O)O[C@@]12CO[C@@H]1C[C@H](O)[C@@]1(C)C(=O)[C@H](O)C3=C(C)[C@@H](OC(=O)[C@H](O)[C@@H](NC(=O)OC(C)(C)C)c4ccccc4)C[C@@](O)([C@@H](OC(=O)c4ccccc4)[C@H]21)C3(C)C [docetaxel]
TGI ([3]; single agent docetaxel 1 mg/kg): 44%
TGI ([3]; single agent docetaxel 10 mg/kg): 43%
Individual tumor volumes ([3]; Docetaxel 1mg/kg, day 1 of treatment): 22.15 mm3 and 31.55 mm3 and 34.9 mm3 and 45.07 mm3 and 50.49 mm3 and 58.82 mm3 and 62.62 mm3 and 76.97 mm3 and 88.69 mm3
Individual tumor volumes ([3]; Docetaxel 1mg/kg, day 4 of treatment): 46.4 mm3 and 28.72 mm3 and 78.5 mm3 and 62.65 mm3 and 97.03 mm3 and 124.03 mm3 and 118.17 mm3 and 67.74 mm3 and 149.61 mm3
Individual tumor volumes ([3]; Docetaxel 1mg/kg, day 6 of treatment): 132.42 mm3 and 19.09 mm3 and 90.17 mm3 and 95.74 mm3 and 164.49 mm3 and 224.32 mm3 and 158.95 mm3 and 86.49 mm3 and 198.71 mm3
Individual tumor volumes ([3]; Docetaxel 1mg/kg, day 8 of treatment): 186.57 mm3 and 10.93 mm3 and 133.19 mm3 and 151.25 mm3 and 260.04 mm3 and 385.2 mm3 and 276.47 mm3 and 199.1 mm3 and 392.38 mm3
Individual tumor volumes ([3]; Docetaxel 1mg/kg, day 11 of treatment): 263.17 mm3 and 22.61 mm3 and 143.19 mm3 and 316.97 mm3 and 451.22 mm3 and 764.37 mm3 and 562.88 mm3 and 301.78 mm3 and 690.4 mm3
Individual tumor volumes ([3]; Docetaxel 10mg/kg, day 1 of treatment): 22.87 mm3 and 29.49 mm3 and 35.8 mm3 and 43.1 mm3 and 51.4 mm3 and 57.21 mm3 and 63.02 mm3 and 74.99 mm3 and 92.42 mm3
Individual tumor volumes ([3]; Docetaxel 10mg/kg, day 4 of treatment): 54.41 mm3 and 32.56 mm3 and 76.21 mm3 and 71.86 mm3 and 73.1 mm3 and 87.77 mm3 and 117.98 mm3 and 93.45 mm3 and 48.5 mm3
Individual tumor volumes ([3]; Docetaxel 10mg/kg, day 6 of treatment): 109.48 mm3 and 42.16 mm3 and 129.37 mm3 and 103.08 mm3 and 111.56 mm3 and 155.23 mm3 and 165.2 mm3 and 163.17 mm3 and 79.31 mm3
Individual tumor volumes ([3]; Docetaxel 10mg/kg, day 8 of treatment): 163.72 mm3 and 98.83 mm3 and 244.12 mm3 and 203.26 mm3 and 199.06 mm3 and 316.02 mm3 and 316.69 mm3 and 217.54 mm3 and 105.3 mm3
Individual tumor volumes ([3]; Docetaxel 10mg/kg, day 11 of treatment): 322.31 mm3 and 251.42 mm3 and 447.21 mm3 and 378.85 mm3 and 332.62 mm3 and 662.99 mm3 and 641.53 mm3 and 377.51 mm3 and 200.96 mm3

C[C@@H](O)[C@H](NC(=O)[C@H](CC(N)=O)NC(=O)[C@@H](N)CO)C(=O)O [PM-116] (H-Ser-Asn-Thr-OH; N-terminus and C-terminus assumed)
EC50 [2]: 6 nM

O=P1(N(CCCl)CCCl)NCCCO1 (stereo not shown) [CTX]
Survival data ([4]; day 1 of treatment): 0
Survival data ([4]; day 3 of treatment): 0
Survival data ([4]; day 6 of treatment): 0
Survival data ([4]; day 8 of treatment): 0
Survival data ([4]; day 10 of treatment): 0
Survival data ([4]; day 12 of treatment): 1 and 0
Survival data ([4]; day 14 of treatment): 1 and 0
Survival data ([4]; day 15 of treatment): 0
